Data taken from patent US4322340A, “Pharmacologically active peptides” (Eli Lilly and Company, priority 1980, dated 1982).
Where a name gives a salt, the structure may show the parent alone.

Columns and labels:
[1] = tested on: mouse; assay: mouse hot plate test (analgesic activity); format: in vivo; settings: subcutaneous injection, tested 15 minutes after administration, hot plate 52° C.
Experimental: In this test, an upright acrylic cylinder comprising, as its base, a hot plate surface which is maintained at 52° C. is used. A mouse is given, by subcutaneous injection, a predetermined amount of test compound dissolved or suspended in a suitable carrier, and, 15 minutes after administration of the test compound, the mouse is placed on the hot plate surface. The latency in seconds until the mouse jumps from the hot plate surface is measured. […] This must occur in a dose range which produces no motor incoordination or incapacitation. The following Table I records ED50 results obtained from this test. By the term "ED50 " is meant that dose which produces analgesia in 50% of the mice tested. Analgesia is defined as a response latency in the presence of test compound that is equal to or greater than the control response latency plus two standard deviations. The percent analgesia data are converted to probits, and the ED50 is calculated by regression analysis of the dose-response data. Each dose response curve must have at least four points, and each point is determined using data from a minimum of ten treated mice and ten control mice.

[2] = tested on: mouse; assay: mouse locomotor activity test (physical dependence liability); format: in vivo; settings: group of ten mice
Experimental: A high correlation has been established between the degree of physical dependence liability of a compound and its ability to elicit mouse locomotor activity; Cf. Goldstein et al., The Journal of Pharmacology and Experimental Therapeutics 169, 175-184 (1969); Rethy et al., The Journal of Pharmacology and Experimental Therapeutics 176, 472-479 (1971); and Brase et al., The Journal of Pharmacology and Experimental Therapeutics 201(2), 368-374 (1977).
Mouse locomotor activity is measured using cylindrical cages of wire mesh 2 inches high and 11 inches in diameter. Six cages are enclosed in a ventilated, sound-attenuated chamber having uniform lighting. A light beam is passed through the center of the cage to a photocell on the opposite side. Two mice are placed in each cage for one hour to become acclimated to the surroundings. Five pairs of mice then are injected subcutaneously with a predetermined dose of the test compound, the remaining pair receiving saline carrier free of test compound. The mice are returned to their respective cages for three hours. The number of counts per each 15 minute period as well as the total number over the three hour period are recorded. Each interruption of the light beam constitutes a count.
The following Table II reflects a mean of the total counts for each group of ten mice tested using a particular compound and dose level.

[3] = Dose 128 mg./kg. subcutaneously

Molecule | Analgesic Activity, Hot Plate Test, ED50 [1] | mean of the total counts, locomotor activity over three hours ([2]; Dose 4 mg./kg. subcutaneously) | mean of the total counts, locomotor activity over three hours ([2]; Dose 8 mg./kg. subcutaneously) | mean of the total counts, locomotor activity over three hours ([2]; Dose 16 mg./kg. subcutaneously) | mean of the total counts, locomotor activity over three hours ([2]; Dose 32 mg./kg. subcutaneously) | mean of the total counts, locomotor activity over three hours ([2]; Dose 64 mg./kg. subcutaneously) | mean of the total counts, locomotor activity over three hours [2, 3]
CCN(C(=O)CNC(=O)[C@@H](C)NC(=O)[C@H](Cc1ccc(O)cc1)NC)[C@@H](Cc1cccc(Br)c1)C(N)=O [Example 2, L-(N-Methyl)tyrosyl-D-alanyl-glycyl-L-(N-ethyl)-m-bromophenylalanine Amide, Acetate Salt] | 3 µg/kg | 142 counts | 235 counts | 358 counts | 701 counts | 2523 counts | 5153 counts
L-Tyrosyl-D-alanyl-glycyl-L-(N-ethyl)-m-bromophenylalanine Amide, Acetate Salt [Example 3] | 4.9 µg/kg |  | 200 counts | 512 counts | 1092 counts | 2820 counts | 
CCN(C(=O)CNC(=O)[C@@H](C)NC(=O)[C@@H](N)Cc1ccc(O)cc1)[C@@H](Cc1cccc(Cl)c1)C(N)=O [Example 5, L-Tyrosyl-D-alanyl-glycyl-L-(N-ethyl)-m-chlorophenylalanine Amide, Acetate Salt] | 0.3 µg/kg | 125 counts | 613 counts | 819 counts | 2388 counts | 3667 counts | 2807 counts
CCN(C(=O)CNC(=O)[C@@H](C)NC(=O)[C@H](Cc1ccc(O)cc1)NC)[C@@H](Cc1ccc(F)cc1)C(N)=O [Me Et p-F, reference compound] |  | 431 counts | 1425 counts | 2415 counts | 2033 counts |  | 
CCN(C(=O)CNC(=O)[C@@H](C)NC(=O)[C@@H](N)Cc1ccc(O)cc1)[C@@H](Cc1ccccc1)C(N)=O [H Et H, reference compound] |  | 704 counts | 1204 counts | 2916 counts | 3528 counts |  | 
CN[C@@H](Cc1ccc(O)cc1)C(=O)N[C@H](C)C(=O)NCC(=O)N(CC1CC1)[C@@H](Cc1cccc(Br)c1)C(N)=O [Example 1, L-(N-Methyl)tyrosyl-D-alanyl-glycyl-L-(N-cyclopropylmethyl)-m-bromophenylalanine Amide, Acetate Salt] |  | 171 counts | 140 counts | 276 counts | 320 counts | 1888 counts | 2159 counts
CCN(C(=O)CNC(=O)[C@@H](C)NC(=O)[C@H](Cc1ccc(O)cc1)NC)[C@@H](Cc1cccc(Cl)c1)C(N)=O [Example 6, L-(N-Methyl)tyrosyl-D-alanyl-glycyl-L-(N-ethyl)-m-chlorophenylalanine Amide, Acetate Salt] | 1.8 µg/kg | 148 counts | 304 counts | 796 counts | 1978 counts | 4477 counts | 3476 counts
CCN(C(=O)CNC(=O)[C@@H](C)NC(=O)[C@H](Cc1ccc(O)cc1)NC)[C@@H](Cc1cccc(C)c1)C(N)=O [Example 4, L-(N-Methyl)tyrosyl-D-alanyl-glycyl-L-(N-ethyl)-m-methyl-phenylalanine Amide, Acetate Salt] | 3 µg/kg | 173 counts | 255 counts | 537 counts | 1176 counts | 3231 counts | 3852 counts
CCN(C(=O)CNC(=O)[C@@H](C)NC(=O)[C@@H](N)Cc1ccc(O)cc1)[C@@H](Cc1cccc(I)c1)C(N)=O [Example 7, L-Tyrosyl-D-alanyl-glycyl-L-(N-ethyl)-m-iodophenylalanine Amide, Acetate Salt] | 1.9 µg/kg | 178 counts | 174 counts | 363 counts | 852 counts | 1630 counts | 2871 counts
